The results in this text go back to patent US10517889B2, “Modulators of SMAD7 expression” (Ionis Pharmaceuticals, Inc., priority 2017, dated 2019).

Strand notation (5' to 3'): a small letter for the sugar, then the base; units joined by * are phosphorothioate-linked, units joined directly phosphodiester-linked; [ ] holds rarer units or linkages, { } end groups; capitals alone tell only the bases. e = 2'-O-(2-methoxyethyl) (MOE); [5mC] = 5-methylcytosine; d = 2'-deoxy (DNA)

In the data set the test system is human SMAD7 mRNA. Briefly: Antisense inhibition of human SMAD7 mRNA expression in Hep3B cells by 5-10-5 MOE gapmers, single concentration, electroporation, RT-PCR (Example 1, Study 1 and 2). Format: cell-based. The settings on record: for % Inhibition: Study 2, electroporation with 15,000 nM antisense oligonucleotide; for % Inhibition of SMAD7 mRNA: electroporation with 15,000 nM antisense oligonucleotide (Study 2). As for the experimental part:
Antisense oligonucleotides were designed to target human SMAD7 mRNA and were tested for their effects on SMAD7 mRNA expression in vitro. Cultured Hep3B cells at a density of 20,000 cells per well were transfected using electroporation with antisense oligonucleotide ION 483663 (a 5-10-5 MOE gapmer), the sequence of which overlaps with ION 28453 (a 4-10-4 MOE gapmer) was included in these assays for comparison. ION 28453 has been previously disclosed in U.S. Pat. No. 6,159,697). After a treatment period of approximately 24 hours, RNA was isolated from the cells and SMAD7 mRNA levels were measured by quantitative real-time PCR. Primer probe set RTS5062 (forward sequence […], designated herein as SEQ ID NO: 11; reverse sequence […], designated herein as SEQ ID NO: 12; probe sequence […], designated herein as SEQ ID NO: 13) was used to measure human SMAD7 mRNA levels. SMAD7 mRNA levels were adjusted according to total RNA content, as measured by RIBOGREEN®. Results are presented as percent inhibition of SMAD7 mRNA expression, relative to untreated control cells.
The newly designed chimeric antisense oligonucleotides in the Tables below were designed as 5-10-5 MOE gapmers. The gapmers are 20 nucleosides in length, wherein the central gap segment comprises of ten 2′-deoxynucleosides and is flanked by wing segments on the 5′ direction and the 3′ direction comprising five nucleosides each. Each nucleoside in the 5′ wing segment and each nucleoside in the 3′ wing segment has a 2′-MOE modification. The internucleoside linkages throughout each gapmer are phosphorothioate (P═S) linkages. All cytosine residues throughout each gapmer are 5-methylcytosines.
“Start site” indicates the 5′-most nucleoside to which the gapmer is targeted in the human gene sequence. “Stop site” indicates the 3′-most nucleoside to which the gapmer is targeted human gene sequence.
Cultured Hep3B cells at a density of 20,000 cells per well were transfected using electroporation with 5,000 nM antisense oligonucleotide.
Cultured Hep3B cells at a density of 20,000 cells per well were transfected using electroporation with 15,000 nM antisense oligonucleotide. The antisense oligonucleotides were tested in a series of experiments that had similar culture conditions as described below.
Some of the oligonucleotides presented were complementary to SMAD7 mRNA sequences RefSeqNo. NM_001190821.1 (designated herein as SEQ ID NO: 3) or RefSeqNo. NM_001190822.1 (designated herein as SEQ ID NO: 4), and are presented in a separate table shown below.

Where [1] appears, read: electroporation, 15,000 nM antisense oligonucleotide (Study 2), 5-10-5 MOE gapmers targeting SEQ ID NO: 1 and 2.
Setting [2] is: 5-10-5 MOE gapmers targeting SEQ ID NO: 1 and 2.
The mark [3] stands for this setting: electroporation, 5,000 nM, approximately 24 hours, relative to untreated control cells, gapmers targeting SEQ ID NO: 1 and 2.
Setting [4] is: electroporation, 15,000 nM, approximately 24 hours, relative to untreated control cells, gapmers targeting SEQ ID NO: 1 and 2.

For the substance “771396 (antisense e[5mC]*eT*eG*e[5mC]*eG*d[5mC]*dT*d[5mC]*d[5mC]*dG*dG*d[5mC]*dT*dG*d[5mC]*e[5mC]*e[5mC]*e[5mC]*eA*e[5mC]) [compound 771396]”, the “% inhibition of SMAD7 mRNA expression” value under setting [1] was 48%. The % Inhibition is how much of the control response was suppressed. Read a high % Inhibition as a strong effect. For the substance “771398 (antisense eG*eG*e[5mC]*eA*eG*dG*dA*dG*d[5mC]*dG*dG*d[5mC]*dG*dG*d[5mC]*eG*eG*e[5mC]*e[5mC]*e[5mC]) [compound 771398]”, the “% Inhibition” value under setting [2] is reported as 48%. Further, the “% inhibition of SMAD7 mRNA expression” value under setting [3] was determined as 53%.

In the case of “771400 (antisense e[5mC]*eG*eA*e[5mC]*eA*dG*d[5mC]*dA*dG*d[5mC]*dA*dG*d[5mC]*dA*dG*e[5mC]*eA*eG*eG*eG) [compound 771400]”, under setting [4], the “% inhibition of SMAD7 mRNA expression” value stood at 52%.

Turning to “771401 (antisense eG*e[5mC]*eA*eG*eG*d[5mC]*dG*dA*d[5mC]*dA*dG*d[5mC]*dA*dG*d[5mC]*eA*eG*e[5mC]*eA*eG) [compound 771401]”, the “% Inhibition” value under setting [2] came out at 21%. Regarding “771402 (antisense e[5mC]*eA*eG*eG*e[5mC]*dG*d[5mC]*dA*dG*dG*d[5mC]*dG*dA*d[5mC]*dA*eG*e[5mC]*eA*eG*e[5mC]) [compound 771402]”, the “% Inhibition” value under setting [2] is recorded as 31%. Regarding “771404 (antisense e[5mC]*eG*eA*eA*e[5mC]*dA*dT*dG*dA*d[5mC]*d[5mC]*dT*d[5mC]*d[5mC]*dG*e[5mC]*eA*e[5mC]*eA*e[5mC]) [compound 771404]”, under setting [1], the “% inhibition of SMAD7 mRNA expression” value was determined as 51%. With “771405 (antisense eA*eG*e[5mC]*eG*eA*dA*d[5mC]*dA*dT*dG*dA*d[5mC]*d[5mC]*dT*d[5mC]*e[5mC]*eG*e[5mC]*eA*e[5mC]) [compound 771405]”, the “% Inhibition” value under setting [2] came out at 25%.

As to “771406 (antisense eG*eA*eG*e[5mC]*eG*dA*dA*d[5mC]*dA*dT*dG*dA*d[5mC]*d[5mC]*dT*e[5mC]*e[5mC]*eG*e[5mC]*eA) [compound 771406]”, the “% inhibition of SMAD7 mRNA expression” value under setting [4] was found to be 55%. Consider “771408 (antisense eT*eG*e[5mC]*eT*eA*dA*dG*dG*dA*dG*d[5mC]*dG*dA*dA*d[5mC]*eA*eT*eG*eA*e[5mC]) [compound 771408]”, for which, under setting [2], the “% Inhibition” value turned out to be 36%. For “771409 (antisense e[5mC]*e[5mC]*e[5mC]*e[5mC]*eT*dG*d[5mC]*dG*d[5mC]*d[5mC]*d[5mC]*dT*d[5mC]*d[5mC]*dT*e[5mC]*e[5mC]*eT*e[5mC]*eG) [compound 771409]”, the “% Inhibition of SMAD7 mRNA” value under setting [2] amounted to 33%. Also, under setting [1], the “% inhibition of SMAD7 mRNA expression” value is given as 19%.

Take “771410 (eG*e[5mC]*eT*e[5mC]*eG*d[5mC]*d[5mC]*dT*d[5mC]*d[5mC]*dT*d[5mC]*d[5mC]*dT*d[5mC]*e[5mC]*eA*e[5mC]*e[5mC]*eT; antisense) [compound 771410]”: under setting [1], the “% inhibition of SMAD7 mRNA expression” value is reported as 37%.

As to “771411 (e[5mC]*e[5mC]*eT*eT*e[5mC]*dT*d[5mC]*d[5mC]*d[5mC]*d[5mC]*dG*d[5mC]*dA*dG*d[5mC]*eT*e[5mC]*eG*e[5mC]*e[5mC]; antisense) [compound 771411]”, the “% inhibition of SMAD7 mRNA expression” value under setting [1] is reported as 33%. Consider “771412 (eT*e[5mC]*eG*e[5mC]*e[5mC]*d[5mC]*d[5mC]*dT*dT*d[5mC]*dT*d[5mC]*d[5mC]*d[5mC]*d[5mC]*eG*e[5mC]*eA*eG*e[5mC]; antisense) [compound 771412]”, for which the “% Inhibition” value under setting [2] is listed as 38%. Further, the “% inhibition of SMAD7 mRNA expression” value under setting [3] is on record as 52%.

With “771413 (eT*eG*eT*e[5mC]*e[5mC]*dG*dT*d[5mC]*dG*d[5mC]*d[5mC]*d[5mC]*d[5mC]*dT*dT*e[5mC]*eT*e[5mC]*e[5mC]*e[5mC]; antisense) [compound 771413]”, the “% Inhibition” value under setting [2] amounted to 24%. For the substance “771415 (eT*eG*e[5mC]*eG*e[5mC]*dT*d[5mC]*dG*dG*d[5mC]*dT*dG*dT*d[5mC]*d[5mC]*eG*eT*e[5mC]*eG*e[5mC]; antisense) [compound 771415]”, under setting [2], the “% Inhibition” value is recorded as 36%. Turning to “771417 (eA*e[5mC]*e[5mC]*eG*eG*d[5mC]*d[5mC]*d[5mC]*d[5mC]*dA*dT*dG*d[5mC]*dG*d[5mC]*eT*e[5mC]*eG*eG*e[5mC]; antisense) [compound 771417]”, the “% Inhibition of SMAD7 mRNA” value under setting [2] is listed as 24%. Moreover, the “% inhibition of SMAD7 mRNA expression” value under setting [1] is on record as 16%.

As for “771419 (eG*eG*e[5mC]*e[5mC]*eG*d[5mC]*d[5mC]*dG*d[5mC]*d[5mC]*dA*d[5mC]*d[5mC]*dG*dG*e[5mC]*e[5mC]*e[5mC]*e[5mC]*eA; antisense) [compound 771419]”, the “% inhibition of SMAD7 mRNA expression” value under setting [1] is listed as 37%. Consider “771420 (eG*e[5mC]*e[5mC]*e[5mC]*eG*dG*dG*d[5mC]*d[5mC]*dG*d[5mC]*d[5mC]*dG*d[5mC]*d[5mC]*eA*e[5mC]*e[5mC]*eG*eG; antisense) [compound 771420]”, for which the “% Inhibition” value under setting [2] amounted to 54%. For the same substance, the “% inhibition of SMAD7 mRNA expression” value under setting [3] was 1%. Turning to “771421 (eG*e[5mC]*e[5mC]*e[5mC]*eT*dG*d[5mC]*d[5mC]*d[5mC]*dG*dG*dG*d[5mC]*d[5mC]*dG*e[5mC]*e[5mC]*eG*e[5mC]*e[5mC]; antisense) [compound 771421]”, the “% Inhibition” value under setting [2] is recorded as 0%. As to “771422 (eA*eT*e[5mC]*e[5mC]*eA*dG*d[5mC]*d[5mC]*d[5mC]*dT*dG*d[5mC]*d[5mC]*d[5mC]*dG*eG*eG*e[5mC]*e[5mC]*eG; antisense) [compound 771422]”, the “% inhibition of SMAD7 mRNA expression” value under setting [4] worked out at 27%. For the substance “771423 (eG*e[5mC]*eA*eG*e[5mC]*dA*dT*d[5mC]*d[5mC]*dA*dG*d[5mC]*d[5mC]*d[5mC]*dT*eG*e[5mC]*e[5mC]*e[5mC]*eG; antisense) [compound 771423]”, the “% Inhibition” value under setting [2] is given as 39%. With “771424 (e[5mC]*e[5mC]*e[5mC]*eA*eG*dG*d[5mC]*dA*dG*d[5mC]*dA*dT*d[5mC]*d[5mC]*dA*eG*e[5mC]*e[5mC]*e[5mC]*eT; antisense) [compound 771424]”, the “% Inhibition” value under setting [2] was found to be 36%.

In the case of “771425 (e[5mC]*e[5mC]*eT*eT*eG*d[5mC]*d[5mC]*d[5mC]*dA*dG*dG*d[5mC]*dA*dG*d[5mC]*eA*eT*e[5mC]*e[5mC]*eA; antisense) [compound 771425]”, under setting [2], the “% Inhibition of SMAD7 mRNA” value is recorded as 15%. Further, under setting [1], the “% inhibition of SMAD7 mRNA expression” value is reported as 1%. “771426 (e[5mC]*eA*e[5mC]*e[5mC]*eG*d[5mC]*d[5mC]*dT*dT*dG*d[5mC]*d[5mC]*d[5mC]*dA*dG*eG*e[5mC]*eA*eG*e[5mC]; antisense) [compound 771426]”: the “% inhibition of SMAD7 mRNA expression” value under setting [1] is 28%. Same read-out and setting: next, “771427 (e[5mC]*e[5mC]*eT*e[5mC]*eG*d[5mC]*dA*d[5mC]*d[5mC]*dG*d[5mC]*d[5mC]*dT*dT*dG*e[5mC]*e[5mC]*e[5mC]*eA*eG; antisense) [compound 771427]”: 36%.

In the case of “771428 (eT*eG*eG*e[5mC]*eA*d[5mC]*d[5mC]*dT*d[5mC]*dG*d[5mC]*dA*d[5mC]*d[5mC]*dG*e[5mC]*e[5mC]*eT*eT*eG; antisense) [compound 771428]”, the “% Inhibition” value under setting [2] was 47%. Further, the “% inhibition of SMAD7 mRNA expression” value under setting [3] was 0%. “771429 (eA*e[5mC]*e[5mC]*eT*eT*dT*dG*dG*d[5mC]*dA*d[5mC]*d[5mC]*dT*d[5mC]*dG*e[5mC]*eA*e[5mC]*e[5mC]*eG; antisense) [compound 771429]”: the “% Inhibition” value under setting [2] is recorded as 11%. With “771430 (e[5mC]*eG*e[5mC]*e[5mC]*e[5mC]*dG*d[5mC]*dG*dG*d[5mC]*dT*dG*dG*d[5mC]*dG*eG*eG*eT*eG*eG; antisense) [compound 771430]”, the “% inhibition of SMAD7 mRNA expression” value under setting [4] was found to be 40%.
